Test results as given in patent publication US20050113292A1 (priority 2003, published 2005).

What was measured:
[1] = tested on: HIV-1; format: cell-based
[2] = tested on: HIV-1 mediated cell-cell fusion (R8 virus); settings: for EC50 / IC50: mediated cell-cell fusion (R8 virus)
[3] = tested on: T-tropic (R8) HIV-1
[4] = tested on: M-tropic (BAL) HIV-1; settings: for IC50: M-tropic (BAL)

Row | SMILES | Neutralization (%) [1] [%] | fold increase over monomer, cell-cell fusion [2] [fold] | EC50 [2] [nM] | IC50 [2] [nM] | fold increase of potency over monomer, R8 virus [3] [fold] | fold increase of potency over monomer, BAL virus [4] [fold] | IC50 [4] [nM] | IC50 ([3]; T-tropic (R8)) [nM]
1 | CC[C@H](C)[C@H](NC(=O)[C@H](CC(C)C)NC(=O)[C@H](CO)NC(=O)[C@H](Cc1c[nH]cn1)NC(=O)[C@@H](NC(=O)[C@H](CC(C)C)NC(=O)[C@H](CO)NC(=O)[C@@H](NC(=O)[C@H](Cc1ccc(O)cc1)NC(=O)[C@H](CC(N)=O)NC(=O)[C@H](CC(N)=O)NC(=O)[C@@H](NC(=O)[C@H](CCC(=O)O)NC(=O)[C@H](CCCNC(=N)N)NC(=O)[C@H](CC(=O)O)NC(=O)[C@H](Cc1c[nH]c2ccccc12)NC(=O)[C@H](CCC(=O)O)NC(=O)[C@H](CCSC)NC(=O)[C@@H]1Cc2c([nH]c3ccccc23)C(C(=O)NCCCC[C@H](NC(=O)CCNC(=O)C2N[C@H](C(=O)N[C@@H](CCSC)C(=O)N[C@@H](CCC(=O)O)C(=O)N[C@@H](Cc3c[nH]c4ccccc34)C(=O)N[C@@H](CC(=O)O)C(=O)N[C@@H](CCCNC(=N)N)C(=O)N[C@@H](CCC(=O)O)C(=O)N[C@H](C(=O)N[C@@H](CC(N)=O)C(=O)N[C@@H](CC(N)=O)C(=O)N[C@@H](Cc3ccc(O)cc3)C(=O)N[C@H](C(=O)N[C@@H](CO)C(=O)N[C@@H](CC(C)C)C(=O)N[C@H](C(=O)N[C@@H](Cc3c[nH]cn3)C(=O)N[C@@H](CO)C(=O)N[C@@H](CC(C)C)C(=O)N[C@H](C(=O)N[C@@H](CCC(=O)O)C(=O)N[C@@H](CCC(=O)O)C(=O)N[C@@H](CO)C(=O)N[C@@H](CCC(N)=O)C(=O)N[C@@H](CC(N)=O)C(=O)N[C@@H](CCC(N)=O)C(=O)N[C@@H](CCC(N)=O)C(=O)N[C@@H](CCC(=O)O)C(=O)N[C@@H](CCCCN)C(=O)N[C@@H](CC(N)=O)C(=O)N[C@@H](CCC(=O)O)C(=O)N[C@@H](CCC(N)=O)C(=O)N[C@@H](CCC(=O)O)C(=O)N[C@@H](CC(C)C)C(=O)N[C@@H](CC(C)C)C(=O)O)[C@@H](C)CC)[C@@H](C)CC)[C@@H](C)O)[C@@H](C)CC)Cc3c2[nH]c2ccccc32)C(=O)N[C@@H](CO)C(=O)N[C@@H](CO)C(=O)N[C@@H](C)C(N)=O)N1)[C@@H](C)CC)[C@@H](C)O)[C@@H](C)CC)C(=O)N[C@@H](CCC(=O)O)C(=O)N[C@@H](CCC(=O)O)C(=O)N[C@@H](CO)C(=O)N[C@@H](CCC(N)=O)C(=O)N[C@@H](CC(N)=O)C(=O)N[C@@H](CCC(N)=O)C(=O)N[C@@H](CCC(N)=O)C(=O)N[C@@H](CCC(=O)O)C(=O)N[C@@H](CCCCN)C(=O)N[C@@H](CC(N)=O)C(=O)N[C@@H](CCC(=O)O)C(=O)N[C@@H](CCC(N)=O)C(=O)N[C@@H](CCC(=O)O)C(=O)N[C@@H](CC(C)C)C(=O)N[C@@H](CC(C)C)C(=O)O (stereo partly drawn) [Compound 2α-C34] | <5 | 74 | 0.47 | 0.47 | 42 | 45 | 0.09 | 
2 | CC[C@H](C)[C@H](NC(=O)[C@H](CC(C)C)NC(=O)[C@H](CO)NC(=O)[C@H](Cc1c[nH]cn1)NC(=O)[C@@H](NC(=O)[C@H](CC(C)C)NC(=O)[C@H](CO)NC(=O)[C@@H](NC(=O)[C@H](Cc1ccc(O)cc1)NC(=O)[C@H](CC(N)=O)NC(=O)[C@H](CC(N)=O)NC(=O)[C@@H](NC(=O)[C@H](CCC(=O)O)NC(=O)[C@H](CCCNC(=N)N)NC(=O)[C@H](CC(=O)O)NC(=O)[C@H](Cc1c[nH]c2ccccc12)NC(=O)[C@H](CCC(=O)O)NC(=O)[C@H](CCSC)NC(=O)[C@@H]1Cc2c([nH]c3ccccc23)C(C(=O)NCCCC[C@H](NC(=O)CCNC(=O)C2N[C@H](C(=O)N[C@@H](CCSC)C(=O)N[C@@H](CCC(=O)O)C(=O)N[C@@H](Cc3c[nH]c4ccccc34)C(=O)N[C@@H](CC(=O)O)C(=O)N[C@@H](CCCNC(=N)N)C(=O)N[C@@H](CCC(=O)O)C(=O)N[C@H](C(=O)N[C@@H](CC(N)=O)C(=O)N[C@@H](CC(N)=O)C(=O)N[C@@H](Cc3ccc(O)cc3)C(=O)N[C@H](C(=O)N[C@@H](CO)C(=O)N[C@@H](CC(C)C)C(=O)N[C@H](C(=O)N[C@@H](Cc3c[nH]cn3)C(=O)N[C@@H](CO)C(=O)N[C@@H](CC(C)C)C(=O)N[C@H](C(=O)N[C@@H](CCC(=O)O)C(=O)N[C@@H](CCC(=O)O)C(=O)N[C@@H](CO)C(=O)N[C@@H](CCC(N)=O)C(=O)N[C@@H](CC(N)=O)C(=O)N[C@@H](CCC(N)=O)C(=O)N[C@@H](CCC(N)=O)C(=O)N[C@@H](CCC(=O)O)C(=O)N[C@@H](CCCCN)C(=O)N[C@@H](CC(N)=O)C(=O)N[C@@H](CCC(=O)O)C(=O)N[C@@H](CCC(N)=O)C(=O)N[C@@H](CCC(=O)O)C(=O)N[C@@H](CC(C)C)C(=O)N[C@@H](CC(C)C)C(=O)O)[C@@H](C)CC)[C@@H](C)CC)[C@@H](C)O)[C@@H](C)CC)Cc3c2[nH]c2ccccc32)C(=O)N[C@@H](CCCCNC(=O)CNC(=O)C2N[C@H](C(=O)N[C@@H](CCSC)C(=O)N[C@@H](CCC(=O)O)C(=O)N[C@@H](Cc3c[nH]c4ccccc34)C(=O)N[C@@H](CC(=O)O)C(=O)N[C@@H](CCCNC(=N)N)C(=O)N[C@@H](CCC(=O)O)C(=O)N[C@H](C(=O)N[C@@H](CC(N)=O)C(=O)N[C@@H](CC(N)=O)C(=O)N[C@@H](Cc3ccc(O)cc3)C(=O)N[C@H](C(=O)N[C@@H](CO)C(=O)N[C@@H](CC(C)C)C(=O)N[C@H](C(=O)N[C@@H](Cc3c[nH]cn3)C(=O)N[C@@H](CO)C(=O)N[C@@H](CC(C)C)C(=O)N[C@H](C(=O)N[C@@H](CCC(=O)O)C(=O)N[C@@H](CCC(=O)O)C(=O)N[C@@H](CO)C(=O)N[C@@H](CCC(N)=O)C(=O)N[C@@H](CC(N)=O)C(=O)N[C@@H](CCC(N)=O)C(=O)N[C@@H](CCC(N)=O)C(=O)N[C@@H](CCC(=O)O)C(=O)N[C@@H](CCCCN)C(=O)N[C@@H](CC(N)=O)C(=O)N[C@@H](CCC(=O)O)C(=O)N[C@@H](CCC(N)=O)C(=O)N[C@@H](CCC(=O)O)C(=O)N[C@@H](CC(C)C)C(=O)N[C@@H](CC(C)C)C(=O)O)[C@@H](C)CC)[C@@H](C)CC)[C@@H](C)O)[C@@H](C)CC)Cc3c2[nH]c2ccccc32)C(=O)N[C@@H](CO)C(=O)N[C@@H](CO)C(=O)N[C@@H](C)C(N)=O)N1)[C@@H](C)CC)[C@@H](C)O)[C@@H](C)CC)C(=O)N[C@@H](CCC(=O)O)C(=O)N[C@@H](CCC(=O)O)C(=O)N[C@@H](CO)C(=O)N[C@@H](CCC(N)=O)C(=O)N[C@@H](CC(N)=O)C(=O)N[C@@H](CCC(N)=O)C(=O)N[C@@H](CCC(N)=O)C(=O)N[C@@H](CCC(=O)O)C(=O)N[C@@H](CCCCN)C(=O)N[C@@H](CC(N)=O)C(=O)N[C@@H](CCC(=O)O)C(=O)N[C@@H](CCC(N)=O)C(=O)N[C@@H](CCC(=O)O)C(=O)N[C@@H](CC(C)C)C(=O)N[C@@H](CC(C)C)C(=O)O (stereo partly drawn) [Compound 3α-C34] | <5 | 34 | 1 | 1 | 42 | 88 | 0.06 | 1
